Measured values published in patent US4443448A, “Indane derivatives, pharmaceutical compositions thereof and method of preparation” (priority 1980, dated 1984).

Assays:
[1] = tested on: methylphenidate; test: Methylphenidate antagonism in mice; type: in vivo; details: Mus musculus, ip, 2 h, read-out: MePh antag. ED50 2 hr i.p., mice, test substance i.p., 2 hr before methylphenidate 60 mg/kg s.c.
Procedure, shortened: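 Test substance given i.p. 2 or 24 h before methylphenidate 60 mg/kg s.c.; mice observed in pairs for 1 h on corrugated paper for biting. Three pairs per dose, scored as fraction of pairs not biting; ED50 in mg/kg.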

[2] = tested on: amphetamine; test: Amphetamine antagonism in rats; type: in vivo; details: Rattus norvegicus, po, rats, p.o., amphetamine 10 mg/kg base i.v.; read-out: Amphetamine antag. ED50 p.o.
Procedure, shortened: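 Rats dosed p.o. with test substance, then 2 or 24 h later given amphetamine sulphate 13.6 mg/kg (10 mg/kg base) i.v.; five rats per dose. Stereotypy (head movements, compulsive gnawing) scored for 1 min at 55 and 65 min; fraction of rats without stereotypy used to derive ED50 in mg/kg.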

[3] = in vivo; design: species or system rats; details: for Ratio catalep./Amphet.: catalepsy ED50 / amphetamine antagonism ED50; for ED50: rat, in vivo, po, rats, p.o., strongest effect within first 6 hours, read-out: Catalep. (catalepsy wire mesh, rat, max, ED50)
Procedure, shortened: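 Oral dosing at 4 fixed-scale levels, five animals per group. Rats were placed on a vertical 1 cm-mesh wire netting at 60, 120, 180, 240, 300 and 360 min post-dose. Immobility for 15 s scored cataleptic; sliding passively or climbing scored non-cataleptic.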

[4] = Mouse grid shock (analgesia); type: in vivo; details: mice, minimal effective dose, in mg/kg
Procedure, shortened: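 Mice (five per dose) on an electrified grid received 20 cycles/s, 5 msec square-wave pulses of rising current until they squeaked, giving the pain threshold in mA. Results are % increase over the pre-dose value, or an MED by van der Waerden X-test.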

[5] = Pharmacological animal tests, general statements on activity; details: in vivo
Procedure: After recrystallisation from 500 milliliters of methanol 18.5 grams of the (-)-isomer of Lu 13-092, D-(-)-tartrate were obtained, melting at 207°-209° C. […] The novel indanes of Formula I were tested pharmacologically in standard and reliable animal tests.

[6] = in vivo; details: iv

CN1CCN([C@@H]2C[C@@H](c3ccc(F)cc3)c3ccc(F)cc32)CC1 (relative stereo) [Lu 13-092, trans-1-methyl-4-(3-(4'-fluorophenyl)-6-fluoro-1-indanyl)piperazine]
ED50 [1]: 4.2 mg/kg
ED50 [2]: 14.8 mg/kg
Ratio catalep./Amphet. [3]: 5.5
ED50 [3]: 81 mg/kg
MED Grid Shock [4]: 1.3
neuroleptic activity [5]: the neuroleptic active isomer is the trans-isomer
LD50 [6]: 80 mg/kg

CC(C)N1CCN(C2CC(c3ccc(F)cc3)c3ccc(F)cc32)CC1 (centres unmarked) [Lu 17-062, 1-Isopropyl-4-(3-(4'-fluorophenyl)-6-fluoro-1-indanyl)piperazine]
ED50 [1]: 1.3 mg/kg
ED50 [2]: 10 mg/kg
Ratio catalep./Amphet. [3]: 1.4
ED50 [3]: 14 mg/kg
MED Grid Shock [4]: 5
neuroleptic activity [5]: neuroleptical active isomer
LD50 [6]: 113 mg/kg
